Laboratory results taken from PubChem BioAssay AID1918999 (Molecular Pharmacology Branch, DTP, NCI, 2023).

Test system: 556581-035-R-J1-PDC complex spheroid growth
Assay: Anticancer human tumor 556581-035-R-J1-PDC patient-derived ovarian carcinoma cell line growth inhibition [AhR]
Conditions: for IC50: curve of first compound; for viability, T/C: stronger effect = lower value
Method in brief: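 Agents were dosed in half-log steps down from roughly clinical Cmax, or from 10 microM where Cmax was unknown, alone and with AhR antagonists. Read-out: percent test/control growth of tumor spheroids containing HUVEC and MSC stromal cells.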
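For viability, T/C in this document: compound exposure lasted 7 days; 100% = DMSO vehicle control growth.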

## CC[C@@]1(O)C(=O)OCc2c1cc1n(c2=O)Cc2cc3c(CN(C)C)c(O)ccc3nc2-1 + Cc1cncc(-c2nc(NCCc3c[nH]c4ccccc34)c3ncn(C(C)C)c3n2)c1
Second compound 0.1 µM
  IC50: > 100 nM
Second compound 0.316 µM
  IC50: > 100 nM
Second compound 1 µM
  IC50: > 100 nM
Second compound 3.16 µM
  IC50: > 100 nM
Second compound 10 µM
  IC50: > 100 nM
Second compound 0.1 µM, first compound 0.000316 µM
  viability, T/C: 114%
Second compound 0.1 µM, first compound 0.001 µM
  viability, T/C: 110%
Second compound 0.1 µM, first compound 0.00316 µM
  viability, T/C: 105%
Second compound 0.1 µM, first compound 0.01 µM
  viability, T/C: 97.6%
Second compound 0.1 µM, first compound 0.0316 µM
  viability, T/C: 85%
Second compound 0.1 µM, first compound 0.1 µM
  viability, T/C: 64.3%
Second compound 0.316 µM, first compound 0.000316 µM
  viability, T/C: 108%
Second compound 0.316 µM, first compound 0.001 µM
  viability, T/C: 115%
Second compound 0.316 µM, first compound 0.00316 µM
  viability, T/C: 109%
Second compound 0.316 µM, first compound 0.01 µM
  viability, T/C: 97.4%
Second compound 0.316 µM, first compound 0.0316 µM
  viability, T/C: 90.2%
Second compound 0.316 µM, first compound 0.1 µM
  viability, T/C: 62.3%
Second compound 1 µM, first compound 0.000316 µM
  viability, T/C: 117%
Second compound 1 µM, first compound 0.001 µM
  viability, T/C: 115%
Second compound 1 µM, first compound 0.00316 µM
  viability, T/C: 105%
Second compound 1 µM, first compound 0.01 µM
  viability, T/C: 95%
Second compound 1 µM, first compound 0.0316 µM
  viability, T/C: 83.4%
Second compound 1 µM, first compound 0.1 µM
  viability, T/C: 57.9%
Second compound 3.16 µM, first compound 0.000316 µM
  viability, T/C: 95.3%
Second compound 3.16 µM, first compound 0.001 µM
  viability, T/C: 101%
Second compound 3.16 µM, first compound 0.00316 µM
  viability, T/C: 104%
Second compound 3.16 µM, first compound 0.01 µM
  viability, T/C: 101%
Second compound 3.16 µM, first compound 0.0316 µM
  viability, T/C: 81.3%
Second compound 3.16 µM, first compound 0.1 µM
  viability, T/C: 62.6%
Second compound 10 µM, first compound 0.000316 µM
  viability, T/C: 99.8%
Second compound 10 µM, first compound 0.001 µM
  viability, T/C: 103%
Second compound 10 µM, first compound 0.00316 µM
  viability, T/C: 99.3%
Second compound 10 µM, first compound 0.01 µM
  viability, T/C: 88.1%
Second compound 10 µM, first compound 0.0316 µM
  viability, T/C: 76.9%
Second compound 10 µM, first compound 0.1 µM
  viability, T/C: 67.2%

## CCc1c2c(nc3ccc(O)cc13)-c1cc3c(c(=O)n1C2)COC(=O)[C@]3(O)CC + Cc1cncc(-c2nc(NCCc3c[nH]c4ccccc34)c3ncn(C(C)C)c3n2)c1
Second compound 0.1 µM
  IC50: 14.8 nM
Second compound 0.316 µM
  IC50: 15.4 nM
Second compound 1 µM
  IC50: 13.7 nM
Second compound 3.16 µM
  IC50: 18.5 nM
Second compound 10 µM
  IC50: 16.8 nM
Second compound 0.1 µM, first compound 0.000949 µM
  viability, T/C: 91.8%
Second compound 0.1 µM, first compound 0.003 µM
  viability, T/C: 86.4%
Second compound 0.1 µM, first compound 0.00949 µM
  viability, T/C: 56.4%
Second compound 0.1 µM, first compound 0.03 µM
  viability, T/C: 36%
Second compound 0.1 µM, first compound 0.0949 µM
  viability, T/C: 17.5%
Second compound 0.1 µM, first compound 0.3 µM
  viability, T/C: 10.5%
Second compound 0.316 µM, first compound 0.000949 µM
  viability, T/C: 97.3%
Second compound 0.316 µM, first compound 0.003 µM
  viability, T/C: 89.2%
Second compound 0.316 µM, first compound 0.00949 µM
  viability, T/C: 55.7%
Second compound 0.316 µM, first compound 0.03 µM
  viability, T/C: 40%
Second compound 0.316 µM, first compound 0.0949 µM
  viability, T/C: 14.4%
Second compound 0.316 µM, first compound 0.3 µM
  viability, T/C: 10.8%
Second compound 1 µM, first compound 0.000949 µM
  viability, T/C: 101%
Second compound 1 µM, first compound 0.003 µM
  viability, T/C: 90.2%
Second compound 1 µM, first compound 0.00949 µM
  viability, T/C: 60.6%
Second compound 1 µM, first compound 0.03 µM
  viability, T/C: 27.1%
Second compound 1 µM, first compound 0.0949 µM
  viability, T/C: 16.2%
Second compound 1 µM, first compound 0.3 µM
  viability, T/C: 9.89%
Second compound 3.16 µM, first compound 0.000949 µM
  viability, T/C: 84.2%
Second compound 3.16 µM, first compound 0.003 µM
  viability, T/C: 90.8%
Second compound 3.16 µM, first compound 0.00949 µM
  viability, T/C: 65.4%
Second compound 3.16 µM, first compound 0.03 µM
  viability, T/C: 38.8%
Second compound 3.16 µM, first compound 0.0949 µM
  viability, T/C: 14.6%
Second compound 3.16 µM, first compound 0.3 µM
  viability, T/C: 13.8%
Second compound 10 µM, first compound 0.000949 µM
  viability, T/C: 81.5%
Second compound 10 µM, first compound 0.003 µM
  viability, T/C: 73.8%
Second compound 10 µM, first compound 0.00949 µM
  viability, T/C: 63%
Second compound 10 µM, first compound 0.03 µM
  viability, T/C: 37.7%
Second compound 10 µM, first compound 0.0949 µM
  viability, T/C: 17.2%
Second compound 10 µM, first compound 0.3 µM
  viability, T/C: 9.08%
